Experimental data from patent EP1170007A1, “REMEDIES” (Takara Shuzo Co, Ltd., priority 1999, dated 2000).
Where “and” joins values, the source holds several entries; their conditions need not be identical. Equal entries are not always repeated.

Columns and labels:
[1] = tested on: HGF production, MRC-5 cells; experiment: Enhancement of HGF production in MRC-5 cells (ELISA); format: cell-based, Human; details: for Increase in HGF production: 24 hours, negative control defined as 100% (7.2 ng/ml)
Protocol: MRC-5 cells (CCL171, Dainippon Pharmaceutical) were suspended in a DME medium (Bio Whittaker) containing 10% fetal calf serum at a concentration of 1 x 10^5 cells/ml. 500 µl of the suspension was placed into a 48-well cell culture plate. After culturing at 37°C in the presence of 5% CO2 for 24 hours, the medium was exchanged for a DME medium containing 1% fetal calf serum. Then, one of samples was added thereto. The plate was incubated for additional 24 hours. The medium was then recovered, and the amount of HGF in the culture medium was measured using Quantikine Human Hepatocyte Growth Factor (HGF) ELISA Kit (Funakoshi). The amount of HGF produced was expressed defining a negative control as 100%. In this case, the amount of HGF produced for the negative control was 7.2 ng/ml. Cyclopentenone (at a final concentration of 20, 40 or 160 µM), GM (at a final concentration of 20, 40, 80 or 160 µM), or dipropionylcyclopentenone (at a final concentration of 32 or 64 µM) was added as a sample. As a negative control, distilled water was added in the same volume as the sample. As a positive control, prostaglandin E1 was added at a final concentration of 0.01, 0.1, 1 or 10 µM.

interleukin-12 = experiment: Intraperitoneal interleukin-12 in mice inoculated with Ehrlich cancer cells (ELISA); format: in vivo, ddY mouse; details: for Amount of intraperitoneal interleukin-12: 10 mg/kg intraperitoneally 1 day after inoculation, individual mice
Protocol: ddY mouse (female, 5 weeks old, weighing about 25 g) purchased from Japan SLC was used for experiments after preliminary breeding for 1 week. 1 x 10^6 Ehrlich cancer cells were intraperitoneally inoculated into the mouse. 10 mg/kg of cyclopentenone was intraperitoneally administered 1 day after the inoculation. The mouse was sacrificed by decapitating and exsanguinating 8 or 12 days after the inoculation with cancer cells. 2 ml, which is the same volume as that of ascites retained in the control mouse, of PBS (-) (Nissui Pharmaceutical) containing 1% bovine serum albumin (Sigma) was intraperitoneally injected into the mouse, which was recovered after extensive massage. For a control group, ascites was directly recovered. The recovered ascites and peritoneal lavage fluid were centrifuged at 2000 rpm for 5 minutes to recover supernatants. The supernatants were used to quantify the amounts of interleukin-12 using an ELISA kit for mouse interleukin-12 measurement (Endogen).

[2] = tested on: human insulin-like growth factor-1 (h-IGF-1) production in Hs68 cells; experiment: Enhancement of h-IGF-1 production in Hs68 cells (ELISA); format: cell-based; details: Example 3-(2): 10 to 20 µM
Protocol: (1) Human newborn foreskin […] Hs68 cells (ATCC CRL-1635) were cultured in a D-MEM medium (Bio Whittaker) containing 10% fetal calf serum (FBS; Gibco BRL) in the presence of 5% CO2 at 37°C to saturation in a culture vessel. Then, the cells were suspended in the medium at a concentration of 3 x 10^5/ml using a trypsin-EDTA solution (Bio Whittaker). 200 µl of the suspension was dispensed into each well of a 96-well microtiter plate. When the cells were almost saturated in the culture vessel after culturing for 5 days, the medium was discarded and a medium containing 4HCP at a concentration of 40, 100 or 200 µM was added thereto. The culture supernatant was recovered at intervals of 24 hours for up to 96 hours. The effect of 4HCP on enhancement of human insulin-like growth factor-1 (h-IGF-1) production in Hs68 cells was determined using ELISA-Kit for h-IGF-1 (Diagnostic System Labo).
(2) Hs68 cells were cultured in a D-MEM medium containing 10% fetal calf serum in the presence of 5% CO2 at 37°C to saturation in a culture vessel. Then, the cells were suspended in the medium at a concentration of 3 x 10^5/ml using a trypsin-EDTA solution. 200 µl of the suspension was dispensed into each well of a 96-well microtiter plate. When the cells were almost saturated in the culture vessel after culturing for 5 to 7 days, the medium was discarded and the medium containing cyclopentenone or GM at a concentration of 0, 2.5, 5, 10 or 20 µM was added thereto. The culture supernatant was recovered at 1, 3, 6, 12, 24 or 48 hours. The effect of cyclopentenone or GM on the production (enhancement of expression) of h-IGF-1 in Hs68 cells was determined using ELISA-Kit for h-IGF-1. […] The amount of h-IGF-1 produced 6 hours after the addition was about twice the amount for the control with no addition. […] (3) Hs68 cells were cultured in a D-MEM medium containing 10% fetal calf serum in the presence of 5% CO2 at 37°C to saturation in a culture vessel. Then, the cells were suspended in the medium at a concentration of 3 x 10^5/ml using a trypsin-EDTA solution. 200 µl of the suspension was dispensed into each well of a 96-well microtiter plate. When the cells were almost saturated in the culture vessel after culturing for 5 to 7 days, the medium was discarded and the medium containing 4HCP, a compound of formula (XVIII) (4HCP-GSH) or glutathione (GSH) at a concentration of 0, 25, 50, 100 or 200 µM was added thereto. The culture supernatant was recovered at 1, 3, 6, 12, 24 or 48 hours. The effect on the production (enhancement of expression) of h-IGF-1 in Hs68 cells was determined using ELISA-Kit for h-IGF-1. As a result, when 4HCP was added at a concentration of 25 to 200 µM, h-IGF production in Hs68 cells became maximal at 1 hour and decreased thereafter as the time went by. […] Significant enhancement of h-IGF-1 production was observed when cultured for 10 to 30 minutes. […]

O=C1C=CC(O)C1O (centres unmarked) [cyclopentenone, 4,5-dihydroxy-2-cyclopenten-1-one]
Increase in HGF production ([1]; 20 µM): 144% | Increase in HGF production ([1]; 40 µM): 218% | Increase in HGF production ([1]; 160 µM): 238% | amount of HGF produced as compared with the negative control (result in words) ([1]; negative control: distilled water): significantly increased | Amount of intraperitoneal interleukin-12 (interleukin-12; After 8 Days, control group ND): 11.0 pg/mL and 100.0 pg/mL and 25.0 pg/mL | Amount of intraperitoneal interleukin-12 (interleukin-12; After 12 Days, control group all dead): 43.0 pg/mL and 97.2 pg/mL and 66.4 pg/mL | activity of enhancing interleukin-12 production (result in words) (interleukin-12; Ehrlich cancer cell inoculated mice): an activity of enhancing interleukin-12 production by cyclopentenone was observed for each mouse | production of h-IGF-1 in Hs68 cells (result in words) [2]: h-IGF-1 production was observed from 1-hour to 6 hours after the addition
